Publication PMC10638397, “Engineering sulfonate group donor regeneration systems to boost biosynthesis of sulfated compounds” (Nature Communications, 2023)

Assays:
Assay type in all cases: biochemical
PPK2^s.e = molecular target: T1, PPK2^s.e (Staphylococcus epidermidis, UniProt Q5HL47); assay: polyphosphate kinase assay, HPLC; details: polyP6, Mg2+, pH 7.5, 35 °C
T1 construct: gene SERP2140
T1 sequence (Q5HL47 1-474): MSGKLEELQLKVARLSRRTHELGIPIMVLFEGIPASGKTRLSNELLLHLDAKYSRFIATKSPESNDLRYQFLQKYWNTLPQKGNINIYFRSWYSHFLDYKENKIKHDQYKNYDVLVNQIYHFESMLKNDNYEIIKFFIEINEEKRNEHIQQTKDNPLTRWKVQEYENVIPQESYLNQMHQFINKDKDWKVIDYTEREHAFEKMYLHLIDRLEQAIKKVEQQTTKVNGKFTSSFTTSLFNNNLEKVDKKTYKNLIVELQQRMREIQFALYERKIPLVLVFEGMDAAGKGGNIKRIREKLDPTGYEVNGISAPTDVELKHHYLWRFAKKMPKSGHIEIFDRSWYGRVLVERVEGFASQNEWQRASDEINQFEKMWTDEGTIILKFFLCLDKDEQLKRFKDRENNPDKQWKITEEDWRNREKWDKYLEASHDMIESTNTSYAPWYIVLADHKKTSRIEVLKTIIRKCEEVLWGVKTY

[1] = test system: T2, chondroitin 4-O-sulfotransferase (C4ST); assay: sulfotransferase kinetics, HPLC-MS; details: Mg2+, pH 7.5, 35 °C (general assay); acceptor not given
T2 construct: gene Chst11; recombinant
Text: sulfotransferase kinetics, HPLC-MS on chondroitin 4-O-sulfotransferase (C4ST)

PPK2^d.r = molecular target: T3, PPK2^d.r (Meiothermus ruber, UniProt M9XB82); assay: polyphosphate kinase assay, HPLC; details: polyP6, Mg2+, pH 7.5, 35 °C
T3 construct: gene K649_10090
T3 sequence (M9XB82 1-267): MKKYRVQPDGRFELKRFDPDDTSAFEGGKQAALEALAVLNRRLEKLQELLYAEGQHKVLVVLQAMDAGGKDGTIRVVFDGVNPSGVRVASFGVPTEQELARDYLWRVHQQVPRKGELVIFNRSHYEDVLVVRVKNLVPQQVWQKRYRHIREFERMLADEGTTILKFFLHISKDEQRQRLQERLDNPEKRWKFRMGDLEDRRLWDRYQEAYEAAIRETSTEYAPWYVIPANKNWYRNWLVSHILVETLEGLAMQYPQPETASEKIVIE

PPK2C^p.a = molecular target: T4, PPK2C^p.a (Pseudomonas aeruginosa, UniProt Q9HYF1); assay: polyphosphate kinase assay, HPLC; details: polyP6, Mg2+, pH 7.5, 35 °C
T4 construct: gene PA3455
T4 sequence (Q9HYF1 1-496): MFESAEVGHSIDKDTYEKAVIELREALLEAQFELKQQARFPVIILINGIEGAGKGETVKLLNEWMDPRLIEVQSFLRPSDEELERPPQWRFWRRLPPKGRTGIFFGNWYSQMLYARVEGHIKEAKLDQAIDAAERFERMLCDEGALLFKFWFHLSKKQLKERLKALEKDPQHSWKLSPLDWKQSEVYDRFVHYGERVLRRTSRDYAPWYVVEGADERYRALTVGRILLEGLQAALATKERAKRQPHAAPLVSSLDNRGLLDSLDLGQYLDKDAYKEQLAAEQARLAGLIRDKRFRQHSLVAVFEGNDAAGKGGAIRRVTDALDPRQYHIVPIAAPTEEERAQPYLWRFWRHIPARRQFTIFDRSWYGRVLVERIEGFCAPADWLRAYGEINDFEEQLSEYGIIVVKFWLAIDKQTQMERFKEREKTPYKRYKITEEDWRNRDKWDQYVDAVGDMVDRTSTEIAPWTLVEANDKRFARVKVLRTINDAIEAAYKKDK

PPK2A^p.a = molecular target: T5, PPK2A^p.a (Pseudomonas aeruginosa, UniProt Q9I6Z1); assay: polyphosphate kinase assay, HPLC; details: polyP6, Mg2+, pH 7.5, 35 °C
T5 construct: gene ppk2
T5 sequence (Q9I6Z1 2-357): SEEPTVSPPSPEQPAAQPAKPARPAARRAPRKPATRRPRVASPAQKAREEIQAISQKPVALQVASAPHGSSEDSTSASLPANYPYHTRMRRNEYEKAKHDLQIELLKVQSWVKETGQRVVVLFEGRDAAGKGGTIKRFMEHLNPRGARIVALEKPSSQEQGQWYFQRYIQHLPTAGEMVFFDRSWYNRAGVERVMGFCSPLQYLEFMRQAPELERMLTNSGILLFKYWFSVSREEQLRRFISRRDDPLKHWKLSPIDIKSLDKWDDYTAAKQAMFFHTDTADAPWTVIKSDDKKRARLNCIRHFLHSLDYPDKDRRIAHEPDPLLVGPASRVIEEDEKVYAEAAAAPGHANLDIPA

PPK2^r.p = molecular target: T6, PPK2^r.p (Ruegeria pomeroyi, UniProt Q5LX16); assay: polyphosphate kinase assay, HPLC; details: polyP6, Mg2+, pH 7.5, 35 °C
T6 construct: gene SPO0224
T6 sequence (Q5LX16 1-305): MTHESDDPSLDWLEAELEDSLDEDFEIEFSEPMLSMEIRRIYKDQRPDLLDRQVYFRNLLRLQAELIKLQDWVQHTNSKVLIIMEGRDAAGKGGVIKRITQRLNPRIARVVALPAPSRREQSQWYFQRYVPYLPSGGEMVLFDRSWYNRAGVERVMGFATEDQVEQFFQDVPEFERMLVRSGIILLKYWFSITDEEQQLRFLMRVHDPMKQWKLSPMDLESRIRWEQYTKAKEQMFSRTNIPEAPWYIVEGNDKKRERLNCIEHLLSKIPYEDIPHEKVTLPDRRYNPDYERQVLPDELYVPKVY

PPK2B^p.a = molecular target: T7, PPK2B^p.a (Pseudomonas aeruginosa, UniProt Q9I154); assay: polyphosphate kinase assay, HPLC; details: polyP6, Mg2+, pH 7.5, 35 °C
T7 construct: gene PA2428
T7 sequence (Q9I154 1-304): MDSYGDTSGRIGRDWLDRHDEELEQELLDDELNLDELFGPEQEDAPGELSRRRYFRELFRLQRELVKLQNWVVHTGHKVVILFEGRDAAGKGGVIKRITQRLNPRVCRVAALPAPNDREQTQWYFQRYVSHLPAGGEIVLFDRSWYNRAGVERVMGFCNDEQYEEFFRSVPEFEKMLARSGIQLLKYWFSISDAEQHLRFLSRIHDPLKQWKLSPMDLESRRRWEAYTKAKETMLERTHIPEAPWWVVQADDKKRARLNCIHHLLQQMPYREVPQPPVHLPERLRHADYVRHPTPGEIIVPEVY

| Km [1] [µM] | Compound | polyphosphate kinase assay, HPLC (PPK2^s.e) | polyphosphate kinase assay, HPLC (PPK2^d.r) | polyphosphate kinase assay, HPLC (PPK2C^p.a) | polyphosphate kinase assay, HPLC (PPK2A^p.a) | polyphosphate kinase assay, HPLC (PPK2^r.p) | polyphosphate kinase assay, HPLC (PPK2B^p.a) |
| --- | --- | --- | --- | --- | --- | --- | --- |
|  | Nc1ncnc2c1ncn2[C@@H]1O[C@H](COP(=O)(O)OP(=O)(O)O)[C@@H](O)[C@H]1O [ADP] | all the other polyphosphate kinases exhibited both AMP and ADP phosphorylase activities |  |  |  |  |  |
| 1270 ± 140 | Nc1ncnc2c1ncn2[C@@H]1O[C@H](COP(=O)(O)OS(=O)(=O)O)[C@@H](OP(=O)(O)O)[C@H]1O [PAPS] |  |  |  |  |  |  |
|  | Nc1ncnc2c1ncn2[C@@H]1O[C@H](COP(=O)(O)O)[C@@H](O)[C@H]1O [AMP] | PPK2^s.e (from S. epidermidis) showed the highest enzymatic activity and preferentially utilized AMP | all the other polyphosphate kinases exhibited both AMP and ADP phosphorylase activities | all the other polyphosphate kinases exhibited both AMP and ADP phosphorylase activities | all the other polyphosphate kinases exhibited both AMP and ADP phosphorylase activities | all the other polyphosphate kinases exhibited both AMP and ADP phosphorylase activities | all the other polyphosphate kinases exhibited both AMP and ADP phosphorylase activities |
